In ChEMBL document CHEMBL1221372, “Design and synthesis of new adamantyl-substituted antileishmanial ether phospholipids” (Bioorg Med Chem Lett, 2010):
pIC50: −log10 of the molar value.

Legend:
Leishmania infantum [1] = assay: Antileishmanial activity against intracellular amastigote form of Leishmania infantum MON 235 infected in human THP1 cells after 48 hrs using giemsa staining; assay type: functional, organism-based; conditions: MON 235, THP-1, 48 h
THP-1 = assay: Cytotoxicity against human THP1 cells using propidium iodide and SYBR-14 staining after 72 hrs by flow cytometry; assay type: cell-based; conditions: THP-1, 72 h
[2] = Selectivity index, ratio of IC50 for human THP1 cells to IC50 for intracellular amastigote form of Leishmania infantum MON 235; assay type: toxicity, cell-based, THP-1; conditions: read-out: Ratio IC50
Leishmania infantum [3] = assay: Antileishmanial activity against intracellular amastigote form of Leishmania infantum MK-1 infected in human THP1 cells after 48 hrs using giemsa staining; assay type: functional, organism-based; conditions: MK-1, THP-1, 48 h
Homo sapiens = organism: Homo sapiens; assay: Half life in human; assay type: ADME, organism-based; conditions: in vivo
[4] = Selectivity index, ratio of IC50 for human THP1 cells to IC50 for intracellular amastigote form of Leishmania infantum MK-1; assay type: toxicity, cell-based, THP-1; conditions: read-out: Ratio IC50

Compound	pIC50 (Leishmania infantum [1])	pIC50 (THP-1)	selectivity ratio [2]	pIC50 (Leishmania infantum [3])	t1/2 (Homo sapiens) [h]	selectivity ratio [4]
C[N+](C)(C)[C@H]1CCC[C@@H]1OP(=O)([O-])OCCCCCCCCCCC=C1C2CC3CC(C2)CC1C3	6.52	4.13	250			
C[N+](C)(C)[C@H]1CCCC[C@@H]1OP(=O)([O-])OCCCCCCCCCCC=C1C2CC3CC(C2)CC1C3	6.10	4.40	49.6			
CCCCOCCC12CC3CC(C1)CC(CCOP(=O)([O-])OCC[N+](C)(C)C)(C3)C2		< 4.30		< 4.30		
CCCCCCOCCC12CC3CC(C1)CC(CCOP(=O)([O-])OCC[N+](C)(C)C)(C3)C2		< 4.30		4.77		
CCCCCCCCOCCC12CC3CC(C1)CC(CCOP(=O)([O-])OCC[N+](C)(C)C)(C3)C2		< 4.30		4.79		
CCCCCCCCCCOCCC12CC3CC(C1)CC(CCOP(=O)([O-])OCC[N+](C)(C)C)(C3)C2		4.74		< 4.74		
CCCCCCCCCCCCOCCC12CC3CC(C1)CC(CCOP(=O)([O-])OCC[N+](C)(C)C)(C3)C2		4.67		< 4.67		
C[N+](C)(C)CCOP(=O)([O-])OCCC12CC3CC(CC(CCOCc4ccccc4)(C3)C1)C2		< 4.30		4.38		
C[N+]1(CCOP(=O)([O-])OCCCCCCCCCCC=C2C3CC4CC(C3)CC2C4)CCCCC1	5.24		29.6			
C[N+]1(CCOP(=O)([O-])OCCCCCCCCCCC=C2C3CC4CC(C3)CC2C4)CCOCC1	5.87		27.9			
C[N+](C)(C)CCOP(=O)([O-])OCCCCCCCCCCC=C1C2CC3CC(C2)CC1C3	7.51		1920			
C[N+](C)(C)CC#CCOP(=O)([O-])OCCCCCCCCCCC=C1C2CC3CC(C2)CC1C3	5.28		14.5			
C[N+]1(C)C2CCC1CC(=CCOP(=O)([O-])OCCCCCCCCCCC=C1C3CC4CC(C3)CC1C4)C2	5.04		16.2			
CCCCCCCCCCCCCCCCOP(=O)([O-])OCC[N+](C)(C)C [MILTEFOSINE]	5.17		8.7	5.59	1.67	11.2
